Assay [1] has as its target T1, L-type Ca2+ channel (LTCC, Cav1.2) (Rattus norvegicus, UniProt P22002).
T1 construct: gene Cacna1c; native channel in single rat tail main artery myocytes
Kind of assay: whole-cell patch clamp, IBa(L); also potentiates [3H]diltiazem binding in rat cardiomyocytes ([…]). The assay is classed as cell-based. A general note: Patch clamp records ionic current or voltage across a cell membrane.

The target of assay [2] is T1, L-type Ca2+ channel (LTCC, Cav1.2). Kind of assay: whole-cell patch clamp, IBa(L). The assay is classed as cell-based.

Among the data in publication PMC6271282, “Playing with Opening and Closing of Heterocycles: Using the Cusmano-Ruccia Reaction to Develop a Novel Class of Oxadiazolothiazinones, Active as Calcium Channel Modulators and P-Glycoprotein Inhibitors” (Molecules, 2014) are IC50 values, retold here.

For orientation: IC50 means the midpoint of a concentration-inhibition curve.

T1 sequence (P22002 whole entry): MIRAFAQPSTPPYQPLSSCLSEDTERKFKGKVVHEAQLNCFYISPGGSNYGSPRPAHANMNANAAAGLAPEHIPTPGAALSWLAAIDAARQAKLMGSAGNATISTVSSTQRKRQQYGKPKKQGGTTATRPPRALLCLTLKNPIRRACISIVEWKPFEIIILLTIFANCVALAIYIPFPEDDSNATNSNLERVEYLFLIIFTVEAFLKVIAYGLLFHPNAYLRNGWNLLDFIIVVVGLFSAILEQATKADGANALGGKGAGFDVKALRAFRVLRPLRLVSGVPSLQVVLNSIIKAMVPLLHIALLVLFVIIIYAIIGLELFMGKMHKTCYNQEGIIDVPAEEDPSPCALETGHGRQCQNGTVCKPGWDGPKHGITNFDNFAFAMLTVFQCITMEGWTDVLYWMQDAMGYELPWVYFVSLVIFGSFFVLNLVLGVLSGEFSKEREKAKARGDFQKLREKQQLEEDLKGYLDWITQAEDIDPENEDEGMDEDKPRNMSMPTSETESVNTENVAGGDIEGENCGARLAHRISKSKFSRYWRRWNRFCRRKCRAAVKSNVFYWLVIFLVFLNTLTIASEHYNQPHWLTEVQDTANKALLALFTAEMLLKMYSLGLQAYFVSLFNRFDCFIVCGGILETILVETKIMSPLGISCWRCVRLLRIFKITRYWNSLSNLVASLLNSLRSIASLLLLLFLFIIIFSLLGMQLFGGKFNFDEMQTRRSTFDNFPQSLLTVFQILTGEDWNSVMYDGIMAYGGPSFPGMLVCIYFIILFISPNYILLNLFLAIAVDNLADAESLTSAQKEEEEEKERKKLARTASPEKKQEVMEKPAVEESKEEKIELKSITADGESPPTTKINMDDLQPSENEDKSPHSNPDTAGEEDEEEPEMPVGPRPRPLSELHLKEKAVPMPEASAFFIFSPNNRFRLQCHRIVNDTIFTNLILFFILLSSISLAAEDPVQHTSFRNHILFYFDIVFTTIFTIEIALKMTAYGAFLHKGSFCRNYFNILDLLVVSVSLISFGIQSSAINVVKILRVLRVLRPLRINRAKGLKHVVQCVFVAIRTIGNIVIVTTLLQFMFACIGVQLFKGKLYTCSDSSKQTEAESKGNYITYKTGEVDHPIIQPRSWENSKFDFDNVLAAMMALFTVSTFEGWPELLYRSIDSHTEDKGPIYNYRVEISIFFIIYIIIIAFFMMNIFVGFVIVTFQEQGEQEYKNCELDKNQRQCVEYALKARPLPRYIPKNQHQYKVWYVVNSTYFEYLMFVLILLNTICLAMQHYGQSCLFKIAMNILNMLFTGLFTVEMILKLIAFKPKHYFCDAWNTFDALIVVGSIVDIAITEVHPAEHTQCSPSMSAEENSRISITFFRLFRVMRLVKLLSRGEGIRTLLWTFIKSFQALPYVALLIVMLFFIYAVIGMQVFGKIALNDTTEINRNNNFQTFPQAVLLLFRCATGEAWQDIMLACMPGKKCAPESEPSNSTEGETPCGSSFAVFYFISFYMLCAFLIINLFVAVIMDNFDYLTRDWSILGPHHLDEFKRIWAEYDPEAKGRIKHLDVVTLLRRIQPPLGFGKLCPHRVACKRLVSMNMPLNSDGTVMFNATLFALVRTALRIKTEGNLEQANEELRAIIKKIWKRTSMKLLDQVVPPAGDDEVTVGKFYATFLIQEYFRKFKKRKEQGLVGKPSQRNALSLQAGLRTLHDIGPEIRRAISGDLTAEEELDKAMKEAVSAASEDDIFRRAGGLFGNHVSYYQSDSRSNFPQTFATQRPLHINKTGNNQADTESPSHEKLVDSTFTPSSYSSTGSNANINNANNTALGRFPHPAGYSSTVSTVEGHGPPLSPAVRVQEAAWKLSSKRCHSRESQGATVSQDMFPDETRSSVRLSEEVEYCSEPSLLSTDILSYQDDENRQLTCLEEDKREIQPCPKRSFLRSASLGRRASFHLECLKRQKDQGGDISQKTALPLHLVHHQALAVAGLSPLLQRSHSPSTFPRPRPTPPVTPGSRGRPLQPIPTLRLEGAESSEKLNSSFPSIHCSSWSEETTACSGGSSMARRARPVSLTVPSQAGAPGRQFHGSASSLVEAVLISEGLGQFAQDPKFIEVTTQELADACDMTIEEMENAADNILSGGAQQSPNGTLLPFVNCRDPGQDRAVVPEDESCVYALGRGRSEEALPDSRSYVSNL

On to `O=c1onc2n1-c1ccc(Cl)cc1SC2(O)c1ccc(Br)cc1` (centres unmarked) [compound 30, 4-(4-Bromophenyl)-7-chloro-4-hydroxy-4H-[1,2,4]oxadiazolo[3,4-c][1,4]benzothiazin-1-one], for which, in assay [1], the IC50 is ~3 µM.

Consider `CC1=CSC(OCCN2CCCCC2)(c2ccc(Br)cc2)c2noc(=O)n21` (centres unmarked) [compound 32, 8-(4-Bromophenyl)-5-methyl-8-(2-piperidin-1-ylethoxy)-8H-[1,2,4]oxadiazolo[3,4-c][1,4]thiazin-3-one], for which the IC50 in assay [2] was ~30 µM.
